Tests used:
[1] = tested on: SK-OV-3 cells; experiment: MTT cell growth inhibition assay in ovarian cancer cell line SK-OV-3; assay type: cell-based; conditions: Homo sapiens, 72 hrs incubation, read-out: SKOV3, nM (CC50, concentration giving 50% cell survival, as range)
Method: Compounds of the invention also were tested for their ability to inhibit the growth of an ovarian cancer cell line, SK-OV-3. A known assay previously used for measuring cell growth (as described in Hansen, M. B., Nielsen, S. E., and Berg, K. (1989) J. Immunol. Methods 119, 203-210 and incorporated herein by reference in its entirety) was used. Briefly, SK-OV-3 cells are seeded in 96-well plates in McCoy's medium containing 10% fetal bovine serum albumin (5,000 per well) and incubated overnight at 37° C. The next day, test compounds are added at various concentrations (0.003-10 μM) and the plates are incubated at 37° C. for an additional 72 hrs. This incubation time was considered to be optimal for measuring inhibitory effects of the different compounds tested. 50 microliters of 5 mg/mL MTT reagent is added to each well and the plates are incubated at 37° C. for another three (3) hours. At the end of the three (3) hour incubation period, 50 microliters of DMSO is added to each well to dissolve cells and the optical density (OD) of the wells is measured with a microplate reader (Victor^2 1420™, Wallac, Finland) at 535 nm. Cell survival (CS) was calculated using the following equation: CS=(OD treated well/mean OD control wells)×100%.
The CC50 (reported in the following tables), is defined as the drug concentration that results in 50% cell survival (CS), and is derived by calculating the point where the dose-response curve crosses the 50% CS point using GraphPad Prism® graphing software. The reported CC50 values are supplied as ranges (A=<0.1 μM, B=0.1 μM to 1 μM, C=>1 μM to 10 μM, D=>10 μM).

[2] = target: T1, XIAP BIR-3 (Homo sapiens, UniProt P98170); experiment: Fluorescence polarization binding to XIAP BIR-3 with labeled peptide AbuRPF-K(5-Fam)-NH2; conditions: XIAP BIR-3, 40 nM BIR3, 5 nM labeled peptide, 15 min RT, pH 7.5; read-out: XIAP, nM (binding affinity KD, as range)
T1 construct: 40 nM of the respective IAP BIR3
Method: (§1) The binding affinities of the compounds are reported as a KD value (μM). Briefly, various concentrations of test peptides were mixed with 5 nM of the fluorescently labeled peptide (i.e., a mutated N-terminal Smac peptide-AbuRPF-K(5-Fam)-NH2) and 40 nM of the respective IAP BIR3 for 15 min at RT in […] of 0.1M Potassium Phosphate buffer, pH 7.5 containing […] bovine g-globulin. Following incubation, the polarization values (mP) were measured on a Victor2V™ (available from PerkinElmer® Life Sciences) using a 485 nm excitation filter and a 520 nm emission filter. The reported binding affinities (KD values) are supplied as ranges (A=<0.1 μM, B=0.1 μM to 1 μM, C=>1 μM to 10 μM, D=>10 μM).

[3] = target: T2, cIAP-1 BIR-3 (Homo sapiens, UniProt Q13490); experiment: Fluorescence polarization binding to cIAP-1 BIR-3 with labeled peptide AbuRPF-K(5-Fam)-NH2; conditions: cIAP-1 BIR-3, 40 nM BIR3, 5 nM labeled peptide, 15 min RT, pH 7.5; read-out: cIAP1, nM (binding affinity KD, as range)
T2 construct: 40 nM of the respective IAP BIR3
Method: as §1

T2 sequence (Q13490 253-363 limits assumed): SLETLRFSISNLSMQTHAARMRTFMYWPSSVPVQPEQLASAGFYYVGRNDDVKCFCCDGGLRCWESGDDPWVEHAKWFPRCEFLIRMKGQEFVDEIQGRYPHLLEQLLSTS
T1 sequence (P98170 241-356 limits assumed): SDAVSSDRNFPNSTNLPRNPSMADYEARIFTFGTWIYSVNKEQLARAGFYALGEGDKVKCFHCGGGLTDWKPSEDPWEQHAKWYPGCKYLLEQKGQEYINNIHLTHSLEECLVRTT

SMILES | Kd [2] | Kd [3] | CC50 [1]
CN[C@@H](C)C(=O)N[C@H](C(=O)N1CC[C@@H]2[C@H]1[C@@H](C(=O)NCc1ccc(F)cc1)CN2S(C)(=O)=O)C1CCCCC1 [Example 3, 4-[2-Cyclohexyl-2-(2-methylamino-propionylamino)-acetyl]-1-methanesulfonyl-octahydro-pyrrolo[3,2-b]pyrrole-3-carboxylic acid 4-fluoro-benzylamide] | < 100 nM | < 100 nM | < 100 nM
CN[C@@H](C)C(=O)N[C@H](C(=O)N1CC[C@@H]2[C@H]1[C@@H](C(=O)NC(c1ccccc1)c1ccccc1)CN2S(C)(=O)=O)C1CCCCC1 [Example 6, 4-[2-Cyclohexyl-2-(2-methylamino-propionylamino)-acetyl]-1-methanesulfonyl-octahydro-pyrrolo[3,2-b]pyrrole-3-carboxylic acid benzhydryl-amide] | < 100 nM | < 100 nM | 100 to 1000 nM
CN[C@@H](C)C(=O)N[C@H](C(=O)N1CC[C@@H]2[C@H]1[C@@H](C(=O)N[C@H](C)c1ccccc1)CN2S(C)(=O)=O)C1CCCCC1 [Example 7, 4-[2-Cyclohexyl-2-(2-methylamino-propionylamino)-acetyl]-1-methanesulfonyl-octahydro-pyrrolo[3,2-b]pyrrole-3-carboxylic acid (1-phenyl-ethyl)-amide] | 100 to 1000 nM | < 100 nM | 100 to 1000 nM
CN[C@@H](C)C(=O)N[C@H](C(=O)N1CC[C@@H]2[C@H]1[C@@H](C(=O)N(C)Cc1ccccc1)CN2S(C)(=O)=O)C1CCCCC1 [Example 9, 4-[2-Cyclohexyl-2-(2-methylamino-propionylamino)-acetyl]-1-methanesulfonyl-octahydro-pyrrolo[3,2-b]pyrrole-3-carboxylic acid benzyl-methyl-amide] | < 100 nM | < 100 nM | 100 to 1000 nM
CN[C@@H](C)C(=O)N[C@H](C(=O)N1CC[C@@H]2[C@H]1[C@@H](C(=O)N[C@@H](Cc1ccccc1)C(=O)OC)CN2S(C)(=O)=O)C1CCCCC1 [Example 10, 2-({4-[2-Cyclohexyl-2-(2-methylamino-propionylamino)-acetyl]-1-methanesulfonyl-octahydro-pyrrolo[3,2-b]pyrrole-3-carbonyl}-amino)-3-phenyl-propionic acid methyl ester] | 100 to 1000 nM | 100 to 1000 nM | 1000 to 10000 nM
CN[C@@H](C)C(=O)N[C@H](C(=O)N1CC[C@@H]2[C@H]1[C@@H](C(=O)N[C@@H](C)c1ccccc1)CN2S(C)(=O)=O)C1CCCCC1 [Example 11, 4-[2-Cyclohexyl-2-(2-methylamino-propionylamino)-acetyl]-1-methanesulfonyl-octahydro-pyrrolo[3,2-b]pyrrole-3-carboxylic acid (1-phenyl-ethyl)-amide] | < 100 nM | < 100 nM | 100 to 1000 nM
CN[C@@H](C)C(=O)N[C@H](C(=O)N1CC[C@@H]2[C@H]1[C@@H](C(=O)N1Cc3ccccc3C1)CN2S(C)(=O)=O)C1CCCCC1 [Example 13, N-{1-Cyclohexyl-2-[6-(1,3-dihydro-isoindole-2-carbonyl)-4-methanesulfonyl-hexahydro-pyrrolo[3,2-b]pyrrol-1-yl]-2-oxo-ethyl}-2-methylamino-propionamide] | < 100 nM | < 100 nM | < 100 nM
CN[C@@H](C)C(=O)N[C@H](C(=O)N1CC[C@@H]2[C@H]1[C@@H](C(=O)N1CCc3ccccc31)CN2S(C)(=O)=O)C1CCCCC1 [Example 15, N-{1-Cyclohexyl-2-[6-(2,3-dihydro-indole-1-carbonyl)-4-methanesulfonyl-hexahydro-pyrrolo[3,2-b]pyrrol-1-yl]-2-oxo-ethyl}-2-methylamino-propionamide] | 100 to 1000 nM | 100 to 1000 nM | < 100 nM

More lines, main results first:

Kd [2] | Kd [3] | SMILES | CC50 [1]
< 100 nM | < 100 nM | CN[C@@H](C)C(=O)N[C@H](C(=O)N1CC[C@@H]2[C@H]1[C@@H](C(=O)N[C@@H]1CCCc3ccccc31)CN2S(C)(=O)=O)C1CCCCC1 [Example 1, 4-[2-Cyclohexyl-2-(2-methylamino-propionylamino)-acetyl]-1-methanesulfonyl-octahydro-pyrrolo[3,2-b]pyrrole-3-carboxylic acid (1,2,3,4-tetrahydro-naphthalen-1-yl)-amide] | < 100 nM
< 100 nM | < 100 nM | CN[C@@H](C)C(=O)N[C@H](C(=O)N1CC[C@@H]2[C@H]1[C@@H](C(=O)NCc1ccccc1)CN2S(C)(=O)=O)C1CCCCC1 [Example 2, 4-[2-Cyclohexyl-2-(2-methylamino-propionylamino)-acetyl]-1-methanesulfonyl-octahydro-pyrrolo[3,2-b]pyrrole-3-carboxylic acid benzylamide] | < 100 nM
< 100 nM | < 100 nM | CN[C@@H](C)C(=O)N[C@H](C(=O)N1CC[C@@H]2[C@H]1[C@@H](C(=O)N[C@H]1CCCc3ccccc31)CN2S(C)(=O)=O)C1CCCCC1 [Example 4, 4-[2-Cyclohexyl-2-(2-methylamino-propionylamino)-acetyl]-1-methanesulfonyl-octahydro-pyrrolo[3,2-b]pyrrole-3-carboxylic acid (1,2,3,4-tetrahydro-naphthalen-1-yl)-amide] | 100 to 1000 nM
1000 to 10000 nM | < 100 nM | CN[C@@H](C)C(=O)N[C@H](C(=O)N1CC[C@@H]2[C@H]1[C@@H](C(=O)NC1CCCCC1)CN2S(C)(=O)=O)C1CCCCC1 [Example 5, 4-[2-Cyclohexyl-2-(2-methylamino-propionylamino)-acetyl]-1-methanesulfonyl-octahydro-pyrrolo[3,2-b]pyrrole-3-carboxylic acid cyclohexylamide] | 1000 to 10000 nM
100 to 1000 nM | < 100 nM | CN[C@@H](C)C(=O)N[C@H](C(=O)N1CC[C@@H]2[C@H]1[C@@H](C(=O)Nc1ccccc1)CN2S(C)(=O)=O)C1CCCCC1 [Example 8, 4-[2-Cyclohexyl-2-(2-methylamino-propionylamino)-acetyl]-1-methanesulfonyl-octahydro-pyrrolo[3,2-b]pyrrole-3-carboxylic acid phenylamide] | < 100 nM
100 to 1000 nM | < 100 nM | CN[C@@H](C)C(=O)N[C@H](C(=O)N1CC[C@@H]2[C@H]1[C@@H](C(=O)N[C@H]1CCc3ccccc31)CN2S(C)(=O)=O)C1CCCCC1 [Example 12, 4-[2-Cyclohexyl-2-(2-methylamino-propionylamino)-acetyl]-1-methanesulfonyl-octahydro-pyrrolo[3,2-b]pyrrole-3-carboxylic acid indan-1-ylamide] | 100 to 1000 nM
100 to 1000 nM | < 100 nM | CN[C@@H](C)C(=O)N[C@H](C(=O)N1CC[C@@H]2[C@H]1[C@@H](C(=O)N[C@@H]1CCc3ccccc31)CN2S(C)(=O)=O)C1CCCCC1 [Example 14, 4-[2-Cyclohexyl-2-(2-methylamino-propionylamino)-acetyl]-1-methanesulfonyl-octahydro-pyrrolo[3,2-b]pyrrole-3-carboxylic acid indan-1-ylamide] | < 100 nM

— patent US8481495B2 (TetraLogic Pharmaceuticals Corporation, priority 2009, dated 2013)
